The target of assay [1] is T1, human β2 adrenergic receptor (Homo sapiens, UniProt P07550).
T1 construct: expressed in transfected cells; membranes prepared
In words: Radioligand binding assay for human β2 adrenergic receptor (Assay Test Procedure A). As to conditions: displacement of [3H]-dihydroalprenolol, CHO membranes. Here is the method:
Chinese hamster ovarian (CHO) cell lines stably expressing cloned human β1, β2 or β3 adrenergic receptors, respectively, were grown to near confluency in Hams F-12 media with 10% FBS in the presence of 500 μg/mL Geneticin. The cell monolayer was lifted with 2 mM EDTA in PBS. Cells were pelleted by centrifugation at 1,000 rpm, and cell pellets were either stored frozen at −80° C. or membranes were prepared immediately for use. For preparation of β1 and β2 receptor expressing membranes, cell pellets were re-suspended in lysis buffer (10 mM HEPES/HCl, 10 mM EDTA, pH 7.4 at 4° C.) and homogenized using a tight-fitting Dounce glass homogenizer (30 strokes) on ice. […] The protein concentration of the membrane suspension was determined by the methods described in Lowry et al., 1951, Journal of Biological Chemistry, 193, 265; and Bradford, Analytical Biochemistry, 1976, 72, 248-54. […]
Binding assays were performed in 96-well microtiter plates in a total assay volume of 100 μL with 10-15 μg of membrane protein containing the human β1, β2 or β3 adrenergic receptors in assay buffer (75 mM Tris/HCl pH 7.4 at 25° C., 12.5 mM MgCl2, 1 mM EDTA, 0.2% BSA). […] Non-specific binding was determined in the presence of 10 μM propranolol. […] Filter plates were washed three times with filtration buffer (75 mM Tris/HCl pH 7.4 at 4° C., 12.5 mM MgCl2, 1 mM EDTA) to remove unbound radioactivity. […]
For orientation: Loss of bound radioactivity is the signal in a displacement assay; it reports binding, not function.

In assay [2] the target is T2, M3 muscarinic receptor (hM3) (Homo sapiens, UniProt P20309).
T2 construct: expressed in transfected cells; membranes prepared
T2 sequence (P20309 whole entry): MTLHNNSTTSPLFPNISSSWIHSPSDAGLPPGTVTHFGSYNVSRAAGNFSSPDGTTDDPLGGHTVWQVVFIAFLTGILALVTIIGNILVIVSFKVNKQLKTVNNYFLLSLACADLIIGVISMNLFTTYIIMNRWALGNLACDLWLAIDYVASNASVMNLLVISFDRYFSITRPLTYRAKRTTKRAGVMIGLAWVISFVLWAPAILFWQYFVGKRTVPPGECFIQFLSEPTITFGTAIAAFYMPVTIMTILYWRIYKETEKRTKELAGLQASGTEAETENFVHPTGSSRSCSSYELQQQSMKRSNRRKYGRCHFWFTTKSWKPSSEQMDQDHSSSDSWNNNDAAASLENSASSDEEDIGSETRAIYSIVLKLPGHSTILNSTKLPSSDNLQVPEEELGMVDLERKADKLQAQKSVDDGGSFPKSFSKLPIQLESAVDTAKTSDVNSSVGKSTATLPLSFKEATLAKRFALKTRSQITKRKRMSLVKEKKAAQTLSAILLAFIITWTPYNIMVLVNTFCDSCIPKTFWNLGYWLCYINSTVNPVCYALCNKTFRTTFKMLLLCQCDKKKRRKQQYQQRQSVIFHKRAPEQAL
As to the kind of experiment: Radioligand binding assay for muscarinic receptors (Assay Test Procedure B). The following applies: displacement of [3H]-NMS, CHO cell membranes. The method, then:
CHO cell lines stably expressing cloned human hM1, hM2, hM3 and hM4 muscarinic receptor subtypes, respectively, were grown to near confluency in HAM's F-12 media supplemented with 10% FBS and 250 μg/mL Geneticin. The cells were grown in a 5% CO2, 37° C. incubator and lifted with 2 mM EDTA in dPBS. Cells were collected by 5 minute centrifugation at 650× g, and cell pellets were either stored frozen at −80° C. or membranes were prepared immediately for use. For membrane preparation, cell pellets were resuspended in lysis buffer and homogenized with a Polytron PT-2100 tissue disrupter (Kinematica AG; 20 seconds×2 bursts). Crude membranes were centrifuged at 40,000× g for 15 minutes at 4° C. […] The protein concentration of the membrane suspension was determined by the method described in Lowry et al., 1951, Journal of Biochemistry, 193, 265. […]
Radioligand binding assays for cloned human muscarinic receptors were performed in 96-well microtiter plates in a total assay volume of 100 μL. […] Filter plates were rinsed three times with wash buffer (10 mM HEPES) to remove unbound radioactivity. […] The plates were then counted in a PerkinElmer Topcount liquid scintillation counter (PerkinElmer Inc., Wellesley, Mass.). Binding data were analyzed by nonlinear regression analysis with the GraphPad Prism Software package (GraphPad Software, Inc., San Diego, Calif.) using the one-site competition model. […]

Bounds are passed on as bounds.

T1 sequence (P07550 whole entry): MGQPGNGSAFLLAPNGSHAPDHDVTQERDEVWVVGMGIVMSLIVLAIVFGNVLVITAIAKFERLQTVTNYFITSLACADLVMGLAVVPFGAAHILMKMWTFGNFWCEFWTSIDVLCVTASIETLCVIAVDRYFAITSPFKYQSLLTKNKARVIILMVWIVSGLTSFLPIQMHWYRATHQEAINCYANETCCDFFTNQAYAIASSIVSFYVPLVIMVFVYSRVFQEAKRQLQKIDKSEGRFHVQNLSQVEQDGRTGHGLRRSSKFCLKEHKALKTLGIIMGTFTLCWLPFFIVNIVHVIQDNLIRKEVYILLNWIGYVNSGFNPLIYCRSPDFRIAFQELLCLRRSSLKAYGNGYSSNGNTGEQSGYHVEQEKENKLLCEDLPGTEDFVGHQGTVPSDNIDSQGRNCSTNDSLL

As to `CN(CCCCCCCCCNC[C@H](O)c1ccc(O)c2[nH]c(=O)ccc12)CCC(C)(C)OC(=O)Nc1ccccc1-c1ccccc1` [Example 1, Biphenyl-2-ylcarbamic Acid 3-({9-[(R)-2-Hydroxy-2-(8-hydroxy-2-oxo-1,2-dihydro-quinolin-5-yl)ethylamino]nonyl}methylamino)-1,1-dimethylpropyl Ester], the Ki in assay [1] and in assay [2] was less than 300 nM each time.
